The target of one test is Factor XIa (Homo sapiens, UniProt P03951). Put plainly: Factor XIa inhibition assay (FLINT) utilizing a fluorophore-quencher pair peptide substrate 5Fam-[…]-K5Tamra. It counts as biochemical. The note with it: kinetic (KIN) reads, read-out: FXIa KIN Inh IC50. Summed up: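 FXIa was preincubated with compound for 30 min at room temperature in Tris pH 7.5 buffer containing CaCl2, BSA and CHAPS, then reacted with 15 μM quenched 5Fam/Tamra peptide substrate. Fluorescence (485/520 nm) was read kinetically every 5 min for 30 min.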
Chain of Factor XIa (P03951 388-625 limits assumed): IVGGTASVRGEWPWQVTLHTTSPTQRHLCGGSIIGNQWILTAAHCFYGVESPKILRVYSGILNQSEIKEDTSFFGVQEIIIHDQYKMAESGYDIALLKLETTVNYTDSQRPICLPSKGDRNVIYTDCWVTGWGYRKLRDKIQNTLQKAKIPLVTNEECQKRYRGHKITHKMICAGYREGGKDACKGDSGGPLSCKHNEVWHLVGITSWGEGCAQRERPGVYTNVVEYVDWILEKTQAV
Chain of Factor XIa (P03951 19-387 partner limits assumed): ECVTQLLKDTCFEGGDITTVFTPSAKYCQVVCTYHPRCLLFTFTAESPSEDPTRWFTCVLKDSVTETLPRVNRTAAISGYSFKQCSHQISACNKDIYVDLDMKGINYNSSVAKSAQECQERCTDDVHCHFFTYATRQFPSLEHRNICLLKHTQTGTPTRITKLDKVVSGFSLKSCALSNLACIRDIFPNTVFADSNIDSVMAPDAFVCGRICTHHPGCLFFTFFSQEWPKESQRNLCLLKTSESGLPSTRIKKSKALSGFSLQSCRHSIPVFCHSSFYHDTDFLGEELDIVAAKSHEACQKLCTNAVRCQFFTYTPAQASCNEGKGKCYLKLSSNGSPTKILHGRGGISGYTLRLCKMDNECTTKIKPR

The next test deals with human plasma kallikrein (Homo sapiens, UniProt P03952). Briefly: Kallikrein inhibition assay (FLINT) utilizing a quenched AMC peptide substrate Z-Gly-Pro-Arg-AMC. It counts as biochemical. The following applies: kinetic (KIN) reads, read-out: Kallikrein KIN Inh IC50. Summed up:
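Human plasma kallikrein (2 nM final) pre-incubated 30 min with compound (11-point 3-fold series, top 1 μM, 2% DMSO), then 50 μM Z-Gly-Pro-Arg-AMC added. Buffer 50 mM Tris pH 7.5, 100 mM NaCl, 5 mM CaCl2, BSA, CHAPS. AMC fluorescence (340/440 nm) read kinetically over 30 min at room temperature, IC50 by 4-parameter logistic fit.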

Like-named read-outs stand apart in the source and are kept apart here. A value given as a limit tells only on which side of the number the result lay.

In general, IC50 refers to the concentration needed to halve the response being measured.

Chain of human plasma kallikrein (P03952 391-638 limits assumed): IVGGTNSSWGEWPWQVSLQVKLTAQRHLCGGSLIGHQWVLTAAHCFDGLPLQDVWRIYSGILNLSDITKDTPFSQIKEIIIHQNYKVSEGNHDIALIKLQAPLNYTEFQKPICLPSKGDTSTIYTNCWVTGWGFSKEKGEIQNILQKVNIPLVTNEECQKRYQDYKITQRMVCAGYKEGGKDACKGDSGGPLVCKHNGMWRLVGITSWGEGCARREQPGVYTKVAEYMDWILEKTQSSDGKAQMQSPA
Chain of human plasma kallikrein (P03952 20-390 partner limits assumed): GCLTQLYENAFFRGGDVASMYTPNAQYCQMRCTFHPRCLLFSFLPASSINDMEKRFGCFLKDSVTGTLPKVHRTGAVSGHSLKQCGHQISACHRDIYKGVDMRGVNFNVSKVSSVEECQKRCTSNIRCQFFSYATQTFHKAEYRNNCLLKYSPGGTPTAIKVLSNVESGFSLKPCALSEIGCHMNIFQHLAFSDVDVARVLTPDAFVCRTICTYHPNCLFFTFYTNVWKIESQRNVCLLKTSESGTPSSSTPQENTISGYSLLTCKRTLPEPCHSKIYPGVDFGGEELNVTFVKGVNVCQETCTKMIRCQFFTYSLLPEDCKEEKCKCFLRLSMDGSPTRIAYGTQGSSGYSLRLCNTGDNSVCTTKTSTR

Turning to `CC(O)c1nccc(-c2cnc([C@@H]3CC4(CC4)c4cc(-c5c(-n6cnnn6)ccc(Cl)c5F)cc(=O)n43)[nH]2)c1F` (single isomer, unassigned) [Example 5, (3'S)-7′-(3-Chloro-2-fluoro-6-(1H-tetrazol-1-yl)phenyl)-3′-(5-(3-fluoro-2-(1-hydroxyethyl)pyridin-4-yl)-1H-imidazol-2-yl)-2′,3′-dihydro-5′H-spiro[cyclopropane-1,1′-indolizin]-5′-one], the IC50 is greater than 100 nM at Factor XIa (values in nM) and greater than 1 µM on human plasma kallikrein (unit μM).

In the case of `CC(O)c1nccc(-c2cnc([C@H]3CC4(CC4)c4cc(-c5c(-n6cnnn6)ccc(Cl)c5F)cc(=O)n43)[nH]2)c1F` (single isomer, unassigned) [Example 6, (3′R)-7′-(3-Chloro-2-fluoro-6-(1H-tetrazol-1-yl)phenyl)-3′-(5-(3-fluoro-2-(1-hydroxyethyl)pyridin-4-yl)-1H-imidazol-2-yl)-2′,3′-dihydro-5′H-spiro[cyclopropane-1,1′-indolizin]-5′-one], the figures for the IC50 at Factor XIa (values in nM) and at human plasma kallikrein (values in nM) were 17 nM and 0.0728 µM, respectively.

For the compound `O=c1cc(-c2c(-n3cnnn3)ccc(Cl)c2F)cc2n1[C@@H](c1ncc(-c3ccnc(CO)c3F)[nH]1)CC21CC1` (single isomer, unassigned) [Example 8], the IC50 at Factor XIa (values in nM) is greater than 100 nM; at human plasma kallikrein (unit μM) it was greater than 1 µM.

Consider `C[C@H]1C[C@@H](c2ncc(-c3cc4c(cn3)NC(=O)CC4)[nH]2)n2c1cc(-c1c(-n3cnnn3)ccc(Cl)c1F)cc2=O` (single isomer, unassigned) [Example 9, 6-(2-((1*S,3*S)-7-(3-Chloro-2-fluoro-6-(1H-tetrazol-1-yl)phenyl)-1-methyl-5-oxo-1,2,3,5-tetrahydroindolizin-3-yl)-1H-imidazol-5-yl)-3,4-dihydro-1,7-naphthyridin-2(1H)-one], for which the IC50 is 6.9 nM on Factor XIa (values in nM) and roughly 0.0214 µM on human plasma kallikrein (values in nM).

With `C[C@H]1C[C@@H](c2ncc(-c3ccc(N)nc3F)[nH]2)n2c1cc(-c1cc(Cl)ccc1-n1cnnn1)cc2=O` (single isomer, unassigned) [Example 36], the concentration for half-maximal inhibition (IC50) on Factor XIa (unit μM) is 1500 nM; on human plasma kallikrein (unit μM), greater than 10 µM.

For the compound `CC(C)(O)COc1nccc(-c2cnc(C3CC4(CC4)c4nc(-c5c(-n6cnnn6)ccc(Cl)c5F)cc(=O)n43)[nH]2)c1F` (single isomer, unassigned) [Example 70, (R*)-2′-(3-Chloro-2-fluoro-6-(1H-tetrazol-1-yl)phenyl)-6′-(5-(3-fluoro-2-(2-hydroxy-2-methylpropoxy)pyridin-4-yl)-1H-imidazol-2-yl)-6′,7′-dihydro-4′H-spiro[cyclopropane-1,8′-pyrrolo[1,2-a]pyrimidin]-4′-one], the IC50 on Factor XIa (values in nM) is 7.3 nM; at human plasma kallikrein (values in nM), 0.0429 µM.

Consider `[2H]C([2H])([2H])OC(=O)Nc1ccc(-c2cnc(C3CC4(CC4)c4nc(-c5c(-n6cnnn6)ccc(Cl)c5F)cc(=O)n43)[nH]2)cc1` (single isomer, unassigned) [Example 71, Methyl-d3 (R*)-(4-(2-(2′-(3-Chloro-2-fluoro-6-(1H-tetrazol-1-yl)phenyl)-4′-oxo-6′,7′-dihydro-4′H-spiro[cyclopropane-1,8′-pyrrolo[1,2-a]pyrimidin]-6′-yl)-1H-imidazol-5-yl)phenyl)carbamate], for which the IC50 on Factor XIa (values in nM) is greater than 100 nM; at human plasma kallikrein (values in nM), 0.736 µM.

On to `[2H]C([2H])([2H])OC(=O)Nc1ccc(-c2cnc(C3CC4(CC4)c4nc(-c5c(-n6cnnn6)ccc(Cl)c5F)cc(=O)n43)[nH]2)cc1` (single isomer, unassigned) [Example 72, Methyl-d3 (S*)-(4-(2-(2′-(3-Chloro-2-fluoro-6-(1H-tetrazol-1-yl)phenyl)-4′-oxo-6′,7′-dihydro-4′H-spiro[cyclopropane-1,8′-pyrrolo[1,2-a]pyrimidin]-6′-yl)-1H-imidazol-5-yl)phenyl)carbamate], for which the values for the IC50 at Factor XIa (values in nM) and on human plasma kallikrein (values in nM) were 0.6 nM and 0.0033 µM, respectively.

With `O=c1cc(-c2c(-n3cnnn3)ccc(Cl)c2F)nc2n1[C@H](c1nc(-c3ccnc(OCC(O)C(F)(F)F)c3F)c[nH]1)CC21CC1` (single isomer, unassigned) [Example 73, (S)-2′-(3-chloro-2-fluoro-6-(1H-tetrazol-1-yl)phenyl)-6′-(4-(3-fluoro-2-((S*)-3,3,3-trifluoro-2-hydroxypropoxy)pyridin-4-yl)-1H-imidazol-2-yl)-6′,7′-dihydro-4′H-spiro[cyclopropane-1,8′-pyrrolo[1,2-a]pyrimidin]-4′-one], the IC50 was 22.1 nM on Factor XIa (values in nM) and 0.0548 µM at human plasma kallikrein (values in nM).

As for `O=c1cc(-c2c(-n3cnnn3)ccc(Cl)c2F)nc2n1[C@H](c1nc(-c3ccnc(OCC(O)C(F)(F)F)c3F)c[nH]1)CC21CC1` (single isomer, unassigned) [Example 74, (S)-2′-(3-chloro-2-fluoro-6-(1H-tetrazol-1-yl)phenyl)-6′-(4-(3-fluoro-2-((R*)-3,3,3-trifluoro-2-hydroxypropoxy)pyridin-4-yl)-1H-imidazol-2-yl)-6′,7′-dihydro-4′H-spiro[cyclopropane-1,8′-pyrrolo[1,2-a]pyrimidin]-4′-one], the IC50 at Factor XIa (values in nM) was 32.1 nM; at human plasma kallikrein (values in nM), 0.0277 µM.

On to `CC1CC(c2ncc(-c3ccnc(CO)c3F)[nH]2)n2c1nc(-c1c(-n3cnnn3)ccc(Cl)c1F)cc2=O` (single isomer, unassigned) [Example 77, (6S*)-2-(3-Chloro-2-fluoro-6-(1H-tetrazol-1-yl)phenyl)-6-(5-(3-fluoro-2-(hydroxymethyl)pyridin-4-yl)-1H-imidazol-2-yl)-8-methyl-7,8-dihydropyrrolo[1,2-a]pyrimidin-4(6H)-one], for which the IC50 was determined as 19.6 nM at Factor XIa (values in nM) and 0.167 µM at human plasma kallikrein (values in nM).

With `CC1CC(c2ncc(-c3ccnc(CO)c3F)[nH]2)n2c1nc(-c1c(-n3cnnn3)ccc(Cl)c1F)cc2=O` (single isomer, unassigned) [Example 78, (6R*)-2-(3-Chloro-2-fluoro-6-(1H-tetrazol-1-yl)phenyl)-6-(5-(3-fluoro-2-(hydroxymethyl)pyridin-4-yl)-1H-imidazol-2-yl)-8-methyl-7,8-dihydropyrrolo[1,2-a]pyrimidin-4(6H)-one], the results for the IC50 at Factor XIa (values in nM) and on human plasma kallikrein (values in nM) were greater than 100 nM and 0.463 µM, respectively.

Take `C[C@H]1C[C@@H](c2ncc(-c3ncc(N)nc3F)[nH]2)n2c1nc(-c1c(-n3cnnn3)ccc(Cl)c1F)cc2=O` (single isomer, unassigned) [Example 89, (6*S,8S)-6-(5-(5-Amino-3-fluoropyrazin-2-yl)-1H-imidazol-2-yl)-2-(3-chloro-2-fluoro-6-(1H-tetrazol-1-yl)phenyl)-8-methyl-7,8-dihydropyrrolo[1,2-a]pyrimidin-4(6H)-one]: the figures for the 50% inhibitory concentration (IC50) on Factor XIa (values in nM) and on human plasma kallikrein (values in nM) were 5.1 nM and roughly 0.0459 µM, respectively.

`C[C@H]1C[C@@H](c2ncc(-c3cc4c(cn3)NC(=O)CC4)[nH]2)n2c1cc(-c1c(-n3cnnn3)ccc(Cl)c1F)cc2=O` (single isomer, unassigned) [Example 92, 6-(2-((1S*,3S*)-7-(3-Chloro-2-fluoro-6-(1H-tetrazol-1-yl)phenyl)-1-methyl-5-oxo-1,2,3,5-tetrahydroindolizin-3-yl)-1H-imidazol-5-yl)-3,4-dihydro-1,7-naphthyridin-2(1H)-one]: the figures for the IC50 on Factor XIa (values in nM) and on human plasma kallikrein (values in nM) were 8.3 nM and 0.0156 µM, respectively.

With `C[C@@H]1C[C@H](c2nc(-c3ncc(N)nc3Cl)c[nH]2)n2c1nc(-c1c(-n3cnnn3)ccc(Cl)c1F)cc2=O` (single isomer, unassigned) [Example 94, (6*R,8R)-6-(4-(5-Amino-3-chloropyrazin-2-yl)-1H-imidazol-2-yl)-2-(3-chloro-2-fluoro-6-(1H-tetrazol-1-yl)phenyl)-8-methyl-7,8-dihydropyrrolo[1,2-a]pyrimidin-4(6H)-one], the values for the IC50 on Factor XIa (values in nM) and on human plasma kallikrein (values in nM) were 1.2 nM and 0.012 µM, respectively.

Consider `C[C@H]1C[C@@H](c2ncc(-c3ccc(N)nc3Cl)[nH]2)n2c1nc(-c1c(-n3cnnn3)ccc(Cl)c1F)cc2=O` (single isomer, unassigned) [Example 140], for which the results for the IC50 on Factor XIa (values in nM) and on human plasma kallikrein (unit μM) were roughly 575 nM and 9.1 µM, respectively.

For `C[C@H]1C[C@@H](c2ncc(-c3ccc(N)nc3Cl)[nH]2)n2c1nc(-c1c(-n3cnnn3)ccc(Cl)c1F)cc2=O` (single isomer, unassigned) [Example 142], the figures for the IC50 at Factor XIa (values in nM) and at human plasma kallikrein (values in nM) were 0.2 nM and 0.0183 µM, respectively.

As for `C[C@H]1CC(c2nc(F)c(-c3ccc(N)nc3)[nH]2)n2c1cc(-c1c(-n3cnnn3)ccc(Cl)c1F)cc2=O` (stereo in doubt) [Example 40, (1*S,3*S)-3-(5-(6-Aminopyridin-3-yl)-4-fluoro-1H-imidazol-2-yl)-7-(3-chloro-2-fluoro-6-(1H-tetrazol-1-yl)phenyl)-1-methyl-2,3-dihydroindolizin-5(1H)-one], the results for the IC50 at Factor XIa (values in nM) and at human plasma kallikrein (unit μM) were 286 nM and 6.4 µM, respectively.

For the compound `Cc1cc(-c2cnc([C@@H]3C[C@@H](C)c4cc(-c5c(-n6cnnn6)ccc(Cl)c5F)cc(=O)n43)[nH]2)ccn1` (stereo in doubt) [Example 41, (1*R,3*S)-7-(3-Chloro-2-fluoro-6-(1H-tetrazol-1-yl)phenyl)-1-methyl-3-(5-(2-methylpyridin-4-yl)-1H-imidazol-2-yl)-2,3-dihydroindolizin-5(1H)-one], the half-maximal inhibitory concentration (IC50) at Factor XIa (values in nM) was found to be 346 nM; on human plasma kallikrein (unit μM), 2.2 µM.

With `Cc1cc(-c2cnc([C@H]3C[C@H](C)c4cc(-c5c(-n6cnnn6)ccc(Cl)c5F)cc(=O)n43)[nH]2)ccn1` (stereo in doubt) [Example 42, (1*S,3*R)-7-(3-Chloro-2-fluoro-6-(1H-tetrazol-1-yl)phenyl)-1-methyl-3-(5-(2-methylpyridin-4-yl)-1H-imidazol-2-yl)-2,3-dihydroindolizin-5(1H)-one], the values for the IC50 at Factor XIa (values in nM) and at human plasma kallikrein (values in nM) were 3.3 nM and 0.033 µM, respectively.
